Patent US7964594B1, “Amino oxazine derivatives” (Hoffmann-La Roche Inc., priority 2009, dated 2011)
pIC50: −log10 of the molar value.

Biological target: T1, BACE2 (Rattus norvegicus, UniProt Q6IE75)
T1 construct: endogenous cellular BACE2 in the Ins1e rat cell line; endogenous in cells; host or cells: INS-TMEM27 (INS1e-derived rat insulinoma cell line with doxycycline-inducible full-length hTMEM27)
T1 sequence (Q6IE75 63-514): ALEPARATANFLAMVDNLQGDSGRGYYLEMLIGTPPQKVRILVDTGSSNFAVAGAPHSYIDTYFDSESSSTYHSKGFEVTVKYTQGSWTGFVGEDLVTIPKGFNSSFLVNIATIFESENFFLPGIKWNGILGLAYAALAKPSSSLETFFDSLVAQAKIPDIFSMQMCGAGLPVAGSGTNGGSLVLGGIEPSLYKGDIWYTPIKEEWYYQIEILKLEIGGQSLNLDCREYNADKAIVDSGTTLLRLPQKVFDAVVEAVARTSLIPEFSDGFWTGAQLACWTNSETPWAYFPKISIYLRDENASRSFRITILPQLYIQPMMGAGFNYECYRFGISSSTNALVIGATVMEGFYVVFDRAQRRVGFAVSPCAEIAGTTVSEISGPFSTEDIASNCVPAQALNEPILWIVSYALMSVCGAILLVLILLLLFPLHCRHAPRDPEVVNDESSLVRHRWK
Assay: Assay for BACE inhibition by measuring cellular TMEM27 cleavage (INS-TMEM27 cells, ELISA of shed TMEM27)
Type: cell-based
Settings: inhibition of human TMEM27 cleavage by endogenous cellular BACE2 in Ins1e rat cell line; ELISA of culture medium
Source text: Assay for BACE Inhibition by Measuring Cellular TMEM27 Cleavage
The assay uses the principle of inhibition of human TMEM27 cleavage by endogenous cellular BACE2 in the Ins1e rat cell line and shedding from the cell surface into the culture medium, followed by detection in an ELISA assay. Inhibition of BACE2 prevents the cleavage and shedding in a dose-dependent manner.
The stable cell line “INS-TMEM27” represents an INS1e-derived cell line with inducible expression (using the TetOn system) of full-length hTMEM27 in a doxycycline-dependent manner. The cells were cultured throughout the experiment in RPMI1640+Glutamax (Invitrogen) Penicillin/Streptomycin, 10% Fetal bovine serum, […], […], 100 micrograms/ml G418 and 100 microgram/ml hygromycin and were grown in adherent culture at 37° C. in a standard CO2 cell culture incubator.
INS-TMEM27 cells were seeded in 96-well plates. After 2 days in culture, BACE2 inhibitor was added in a range of concentrations as required by the assay and after a further two hours, doxycycline was added to a final concentration of 500 ng/ml. The cells were incubated for a further 46 hours and the supernatant harvested for detection of shed TMEM27.
An ELISA assay (using a pair of mouse anti-human-TMEM27 antibodies, raised against the extracellular domain of TMEM27) was used for detection of TMEM27 in the culture medium. An IC50 for BACE2 inhibition was calculated using the ELISA readout for each inhibitor concentration with standard curve-fitting software XLfit (IDBS) for the Excel spreadsheet program.

Structure (SMILES)	pIC50
C[C@]1(c2cc(NC(=O)C3CC3(F)F)ccc2F)N=C(N)OCC12CC2 (mixture of isomers) [Example 55, N-(3-((S)-6-Amino-8-methyl-5-oxa-7-azaspiro[2.5]oct-6-en-8-yl)-4-fluorophenyl)-2,2-difluorocyclopropanecarboxamide]	5.68
CC[C@@]1(c2cc(NC(=O)c3ncc(Cl)cc3C)ccc2F)CCOC(N)=N1 [Example 23]	8.05
C[C@@]1(c2cc(NC(=O)c3cccc(Cl)n3)ccc2F)CCOC(N)=N1 [Example 32, 6-Chloro-pyridine-2-carboxylic acid [3-((S)-2-amino-4-methyl-5,6-dihydro-4H-[1,3]oxazin-4-yl)-4-fluoro-phenyl]-amide]	8.40
C[C@@]1(c2cc(NC(=O)c3ccc(OC(F)F)cn3)ccc2F)CCOC(N)=N1 [Example 61, 5-Difluoromethoxy-pyridine-2-carboxylic acid [3-((S)-2-amino-4-methyl-5,6-dihydro-4H-[1,3]oxazin-4-yl)-4-fluoro-phenyl]-amide]	6.32
C[C@]1(c2cc(NC(=O)c3ncc(F)cc3Cl)ccc2F)N=C(N)OCC12CC2 [Example 52, (S)—N-(3-(6-Amino-8-methyl-5-oxa-7-azaspiro[2.5]oct-6-en-8-yl)-4-fluorophenyl)-3-chloro-5-fluoropicolinamide]	7.80
C[C@@]1(c2cc(NC(=O)c3ncc(Cl)cc3Cl)ccc2F)CCOC(N)=N1 [Example 1, 3,5-Dichloro-pyridine-2-carboxylic acid [3-((S)-2-amino-4-methyl-5,6-dihydro-4H-[1,3]oxazin-4-yl)-4-fluoro-phenyl]-amide]	8.40
C[C@]1(c2cc(NC(=O)c3ncccc3Cl)ccc2F)N=C(N)OCC12CC2 [Example 48, (S)—N-(3-(6-Amino-8-methyl-5-oxa-7-azaspiro[2.5]oct-6-en-8-yl)-4-fluorophenyl)-3-chloropicolinamide]	7.44
C[C@]1(c2cc(NC(=O)c3ncc(F)cc3F)ccc2F)N=C(N)OCC12CC2 [Example 49, (S)—N-(3-(6-Amino-8-methyl-5-oxa-7-azaspiro[2.5]oct-6-en-8-yl)-4-fluorophenyl)-3,5-difluoropicolinamide]	7.85
CC[C@@]1(c2cc(NC(=O)c3ncc(Cl)cc3Cl)ccc2F)CCOC(N)=N1 [Example 22]	8.15
C[C@@]1(c2cc(NC(=O)c3ccc(Cl)cn3)ccc2F)CCOC(N)=N1 [Example 2, 5-Chloro-pyridine-2-carboxylic acid [3-((S)-2-amino-4-methyl-5,6-dihydro-4H-[1,3]oxazin-4-yl)-4-fluoro-phenyl]-amide]	8.00
C[C@@]1(c2cc(NC(=O)c3ncccc3C(F)(F)F)ccc2F)CCOC(N)=N1 [Example 16, 3-Trifluoromethyl-pyridine-2-carboxylic acid [3-((S)-2-amino-4-methyl-5,6-dihydro-4H-[1,3]oxazin-4-yl)-4-fluoro-phenyl]-amide]	7.66
C[C@]1(c2cc(NC(=O)c3ccc(F)cn3)ccc2F)N=C(N)OCC12CC2 [Example 40, 5-Fluoro-pyridine-2-carboxylic acid [3-((S)-6-amino-8-methyl-5-oxa-7-aza-spiro[2.5]oct-6-en-8-yl)-4-fluoro-phenyl]-amide]	7.41
CC[C@@]1(c2cc(NC(=O)c3ccc(C)s3)ccc2F)CCOC(N)=N1 [Example 20]	7.32
COc1ccc(C(=O)Nc2ccc(F)c([C@]3(C)CCOC(N)=N3)c2)nc1 [Example 30, 5-Methoxy-pyridine-2-carboxylic acid [3-((S)-2-amino-4-methyl-5,6-dihydro-4H-[1,3]oxazin-4-yl)-4-fluoro-phenyl]-amide]	7.92
COc1ccc(C(=O)Nc2ccc(F)c([C@@]3(C)N=C(N)OCC34CC4)c2)nc1 [Example 39]	7.04
Cc1conc1C(=O)Nc1ccc(F)c([C@]2(C)CCOC(N)=N2)c1 [Example 63]	6.98
C[C@]1(c2cc(NC(=O)c3ccc(OC(F)F)cn3)ccc2F)N=C(N)OCC12CC2 [Example 42, 5-Difluoromethoxy-pyridine-2-carboxylic acid [3-((S)-6-amino-8-methyl-5-oxa-7-aza-Spiro[2.5]oct-6-en-8-yl)-4-fluoro-phenyl]-amide]	6.68
Cc1ccc(C(=O)Nc2ccc(F)c([C@]3(C)CCOC(N)=N3)c2)nc1 [Example 15]	8.35
NC1=N[C@@]2(c3cc(NC(=O)c4ccc(Cl)cn4)ccc3F)COC[C@H]2CO1 [Example 65, 5-Chloro-pyridine-2-carboxylic acid [3-((4aS,7aS)-2-amino-4a,5-dihydro-4H-furo[3,4-d][1,3]oxazin-7a-yl)-4-fluoro-phenyl]-amide]	7.22
C[C@]1(c2cc(NC(=O)c3ncc(C(F)(F)F)cc3Cl)ccc2F)N=C(N)OCC12CC2 [Example 50, (S)—N-(3-(6-Amino-8-methyl-5-oxa-7-azaspiro[2.5]oct-6-en-8-yl)-4-fluorophenyl)-3-chloro-5-(trifluoromethyl)picolinamide]	6.72
C[C@@]1(c2cc(NC(=O)c3cc4ccccc4s3)ccc2F)CCOC(N)=N1 [Example 13, Benzo[b]thiophene-2-carboxylic acid [3-((S)-2-amino-4-methyl-5,6-dihydro-4H-[1,3]oxazin-4-yl)-4-fluoro-phenyl]-amide]	7.28
C[C@@]1(c2cc(NC(=O)c3ccc(F)cn3)ccc2F)CCOC(N)=N1 [Example 3, 5-Fluoro-pyridine-2-carboxylic acid [3-((S)-2-amino-4-methyl-5,6-dihydro-4H-[1,3]oxazin-4-yl)-4-fluoro-phenyl]-amide]	8.22
Cc1cc(Cl)cnc1C(=O)Nc1ccc(F)c([C@@]2(C)N=C(N)OCC23CC3)c1 [Example 38, 5-Chloro-3-methyl-pyridine-2-carboxylic acid [3-((S)-6-amino-8-methyl-5-oxa-7-aza-Spiro[2.5]oct-6-en-8-yl)-4-fluoro-phenyl]amide]	8.29
C[C@@]1(c2cc(NC(=O)C3CC3(F)F)ccc2F)CCOC(N)=N1 (stereo partly drawn) [Example 46, 2,2-Difluoro-cyclopropanecarboxylic acid [3-((S)-2-amino-4-methyl-5,6-dihydro-4H-[1,3]oxazin-4-yl)-4-fluoro-phenyl]-amide]	7.15
Cn1cc(Cl)c(C(=O)Nc2ccc(F)c([C@@]3(C)N=C(N)OCC34CC4)c2)n1 [Example 56, (S)—N-(3-(6-Amino-8-methyl-5-oxa-7-azaspiro[2.5]oct-6-en-8-yl)-4-fluorophenyl)-4-chloro-1-methyl-1H-pyrazole-3-carboxamide]	8.22
Cc1c(C(=O)Nc2ccc(F)c([C@@]3(C)N=C(N)OCC34CC4)c2)noc1Cl [Example 57, (S)—N-(3-(6-Amino-8-methyl-5-oxa-7-azaspiro[2.5]oct-6-en-8-yl)-4-fluorophenyl)-5-chloro-4-methylisoxazole-3-carboxamide]	5.19
C[C@@]1(c2cc(NC(=O)c3ccccn3)ccc2F)CCOC(N)=N1 [Example 4, Pyridine-2-carboxylic acid [3-((S)-2-amino-4-methyl-5,6-dihydro-4H-[1,3]oxazin-4-yl)-4-fluoro-phenyl]-amide]	6.64
C[C@@]1(c2cc(NC(=O)CC(F)(F)F)ccc2F)CCOC(N)=N1 [Example 59, N-[3-((S)-2-Amino-4-methyl-5,6-dihydro-4H-[1,3]oxazin-4-yl)-4-fluoro-phenyl]-3,3,3-trifluoro-propionamide]	6.08
